In patent US20260092061A1, “COMPOUNDS FOR TARGETED PROTEIN DEGRADATION” (Amphista Therapeutics Limited, priority 2022, published 2026):

Key:
[1] = target: T1, BRD9 (Homo sapiens, UniProt Q9H8M2); experiment: BRD9 degradation, HiBiT-BRD9 KI HEK293 (LgBiT) cells, NanoGlo Lytic Endpoint assay (Assay Protocol 1); type: cell-based; settings: Assay protocol 1, BRD9 degradation; for DC50: read-out: DC50; for Dmax: HEK293, read-out: Dmax
T1 sequence (Q9H8M2 1-597): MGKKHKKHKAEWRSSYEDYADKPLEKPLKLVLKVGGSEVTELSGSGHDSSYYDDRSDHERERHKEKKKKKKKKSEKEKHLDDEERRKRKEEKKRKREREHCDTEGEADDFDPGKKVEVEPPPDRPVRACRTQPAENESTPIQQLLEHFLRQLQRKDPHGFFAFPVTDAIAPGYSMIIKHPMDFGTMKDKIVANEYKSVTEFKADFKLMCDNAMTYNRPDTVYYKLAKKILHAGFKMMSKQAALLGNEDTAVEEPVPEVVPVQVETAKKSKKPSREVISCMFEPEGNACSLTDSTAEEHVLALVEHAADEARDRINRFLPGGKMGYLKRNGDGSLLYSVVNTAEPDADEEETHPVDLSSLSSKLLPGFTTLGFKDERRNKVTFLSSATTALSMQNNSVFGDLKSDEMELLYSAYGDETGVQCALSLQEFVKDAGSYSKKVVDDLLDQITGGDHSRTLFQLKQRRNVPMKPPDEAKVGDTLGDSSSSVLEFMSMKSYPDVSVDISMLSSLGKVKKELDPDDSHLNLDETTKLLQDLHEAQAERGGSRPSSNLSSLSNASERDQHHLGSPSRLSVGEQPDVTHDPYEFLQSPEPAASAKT
Summary of the method: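 HiBiT-tagged BRD9 knock-in HEK293 (LgBiT) cells exposed to compounds for 6 h at 37 °C, 5% CO2. Residual BRD9 measured by HiBiT lytic luminescence. % BRD9 remaining normalised to DMSO-treated cells (high) and no-cell wells (low).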

[2] = target: T1, BRD9; experiment: Degradation of BRD9 (IF), immunofluorescence in MV4-11 cells, 24 hours (Assay Protocol 2); type: cell-based; parameters: A suspension of MV4-11 cells (ATCC CRL-9591) was prepared; host or cells: MV4-11; settings: BRD9 degradation; for DC50: Assay protocol 2, read-out: DC50; for Dmax: MV4-11, Assay protocol 2, read-out: Dmax
Summary of the method: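 % BRD9 remaining, scaled between DMSO (high) and 100 nM CFT-8634 (low) control wells, derives from mean Alexa 647 contrast in central nuclei by high-content imaging. MV4-11 cells had 24 h compound exposure at 37° C. before PFA fixation, Triton permeabilisation and anti-BRD9 E4Q3F immunostaining.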

SMILES | DC50 [1] [nM] | Dmax [1] [%] | DC50 [2] [nM] | Dmax [2] [%]
COc1cc(-c2cn(C)c(=O)c(C)c2C)cc(OC)c1CN1CC2CC(C1)N2Cc1cccc2c1CCN(C(=O)/C(C#N)=C/c1cccc(Br)n1)C2C (mixture of isomers) [Compound B7, (E/Z)-3-(6-bromopyridin-2-yl)-2-(5-((3-(2,6-dimethoxy-4-(1,4,5-trimethyl-6-oxo-1,6-dihydropyridin-3-yl)benzyl)-3,6-diazabicyclo[3.1.1]heptan-6-yl)methyl)-1-methyl-1,2,3,4-tetrahydroisoquinoline-2-carbonyl)acrylonitrile] | 1.25 to 10 | 40 to 70 | < 1.25 | 40 to 70
COc1cc(-c2cn(C)c(=O)c(C)c2C)cc(OC)c1CN1CCN(Cc2cccc3c2CCN(C(=O)/C(C#N)=C/c2ncc(C(F)(F)F)s2)C3C)CC1 (mixture of isomers) [Compound B10, (E/Z)-2-(5-((4-(2,6-dimethoxy-4-(1,4,5-trimethyl-6-oxo-1,6-dihydropyridin-3-yl)benzyl)piperazin-1-yl)methyl)-1-methyl-1,2,3,4-tetrahydroisoquinoline-2-carbonyl)-3-(5-(trifluoromethyl)thiazol-2-yl)acrylonitrile] | 1.25 to 10 | 70 to 75 |  | 40 to 70
COc1cc(-c2cn(C)c(=O)c(C)c2C)cc(OC)c1CN1CC2CC(C1)N2Cc1cccc(C2CCCN2C(=O)/C(C#N)=C/c2cccc(Br)n2)c1 (mixture of isomers) [Compound B12, (E/Z)-3-(6-bromopyridin-2-yl)-2-(2-(3-((3-(2,6-dimethoxy-4-(1,4,5-trimethyl-6-oxo-1,6-dihydropyridin-3-yl)benzyl)-3,6-diazabicyclo[3.1.1]heptan-6-yl)methyl)phenyl)pyrrolidine-1-carbonyl)acrylonitrile] | 10 to 25 | > 75 | 1.25 to 10 | > 75
COc1cc(-c2cn(C)c(=O)c(C)c2C)cc(OC)c1CN1C2CC1CN(Cc1cccc3c1CCN(C(=O)/C(C#N)=C/C(C)(C)C)C3C)C2 (mixture of isomers) [Compound B13, (E/Z)-2-(5-((6-(2,6-dimethoxy-4-(1,4,5-trimethyl-6-oxo-1,6-dihydropyridin-3-yl)benzyl)-3,6-diazabicyclo[3.1.1]heptan-3-yl)methyl)-1-methyl-1,2,3,4-tetrahydroisoquinoline-2-carbonyl)-4,4-dimethylpent-2-enenitrile] | 10 to 25 | > 75 | 1.25 to 10 | 40 to 70
COc1cc(-c2cn(C)c(=O)c(C)c2C)cc(OC)c1CN(C)Cc1cccc2c1CCN(C(=O)/C(C#N)=C/c1cccc(C(F)(F)F)n1)C2C (mixture of isomers) [Compound B15, (E/Z)-2-(5-(((2,6-dimethoxy-4-(1,4,5-trimethyl-6-oxo-1,6-dihydropyridin-3-yl)benzyl)(methyl)amino)methyl)-1-methyl-1,2,3,4-tetrahydroisoquinoline-2-carbonyl)-3-(6-(trifluoromethyl)pyridin-2-yl)acrylonitrile] | 1.25 to 10 | > 75 | < 1.25 | > 75
COc1cc(-c2cn(C)c(=O)c(C)c2C)cc(OC)c1CN(C)C(=O)c1cccc2c1CCN(C(=O)/C(C#N)=C/c1cccc(Br)n1)C2C (mixture of isomers) [Compound B16, (E/Z)-2-(3-(6-bromopyridin-2-yl)-2-cyanoacryloyl)-N-(2,6-dimethoxy-4-(1,4,5-trimethyl-6-oxo-1,6-dihydropyridin-3-yl)benzyl)-N,1-dimethyl-1,2,3,4-tetrahydroisoquinoline-5-carboxamide] | < 1.25 | > 75 | 1.25 to 10 | > 75

The remaining lines, values ahead:

DC50 [1] [nM] | Dmax [1] [%] | DC50 [2] [nM] | Dmax [2] [%] | SMILES
< 1.25 | > 75 | < 1.25 | > 75 | COc1cc(-c2cn(C)c(=O)c(C)c2C)cc(OC)c1CN1CCN(Cc2cccc3c2CCN(C(=O)/C(C#N)=C/c2ccnc(C)n2)C3C)CC1 (mixture of isomers) [Compound B9, (E/Z)-2-(5-((4-(2,6-dimethoxy-4-(1,4,5-trimethyl-6-oxo-1,6-dihydropyridin-3-yl)benzyl)piperazin-1-yl)methyl)-1-methyl-1,2,3,4-tetrahydroisoquinoline-2-carbonyl)-3-(2-methylpyrimidin-4-yl)acrylonitrile]
< 1.25 | > 75 | < 1.25 | > 75 | COc1cc(-c2cn(C)c(=O)c(C)c2C)cc(OC)c1CN1CCN(Cc2cccc3c2CCN(C(=O)/C(C#N)=C/c2nc(C(F)(F)F)cs2)C3C)CC1 (mixture of isomers) [Compound B11, (E/Z)-2-(5-((4-(2,6-dimethoxy-4-(1,4,5-trimethyl-6-oxo-1,6-dihydropyridin-3-yl)benzyl)piperazin-1-yl)methyl)-1-methyl-1,2,3,4-tetrahydroisoquinoline-2-carbonyl)-3-(4-(trifluoromethyl)thiazol-2-yl)acrylonitrile]
1.25 to 10 | > 75 | 1.25 to 10 | > 75 | COc1cc(-c2cn(C)c(=O)c(C)c2C)cc(OC)c1CN(C)Cc1cccc2c1CCN(C(=O)/C(C#N)=C/c1cccc(Br)n1)C2C (mixture of isomers) [Compound B14, (E/Z)-3-(6-bromopyridin-2-yl)-2-(5-(((2,6-dimethoxy-4-(1,4,5-trimethyl-6-oxo-1,6-dihydropyridin-3-yl)benzyl)(methyl)amino)methyl)-1-methyl-1,2,3,4-tetrahydroisoquinoline-2-carbonyl)acrylonitrile]
25 to 1000 | 40 to 70 | 25 to 1000 | 40 to 70 | COc1cc(-c2cn(C)c(=O)c(C)c2C)cc(OC)c1CN(C)C(=O)c1ccc2c(c1)CCN(C(=O)/C(C#N)=C/c1cccc(Br)n1)C2C (mixture of isomers) [Compound B17, (E/Z)-2(3-(6-bromopyridin-2-yl)-2-cyanoacryloyl)-N-(2,6-dimethoxy-4-(1,4,5-trimethyl-6-oxo-1,6-dihydropyridin-3-yl)benzyl)-N,1-dimethyl-1,2,3,4-tetrahydroisoquinoline-6-carboxamide]
1.25 to 10 | 40 to 70 |  | 25 to 40 | COc1cc(-c2cn(C)c(=O)c(C)c2C)cc(OC)c1CN1CCN(Cc2cccc3c2CCN(C(=O)/C(C#N)=C/c2ccc(C)cn2)C3C)CC1 (mixture of isomers) [Compound B18, (E/Z)-2-(5-((4-(2,6-dimethoxy-4-(1,4,5-trimethyl-6-oxo-1,6-dihydropyridin-3-yl)benzyl)piperazin-1-yl)methyl)-1-methyl-1,2,3,4-tetrahydroisoquinoline-2-carbonyl)-3-(5-methylpyridin-2-yl)acrylonitrile]
1.25 to 10 | 40 to 70 |  | 40 to 70 | COc1cc(-c2cn(C)c(=O)c(C)c2C)cc(OC)c1CN1CCN(Cc2cccc3c2CCN(C(=O)/C(C#N)=C/c2cc(C)ccn2)C3C)CC1 (mixture of isomers) [Compound B19, (E/Z)-2-(5-((4-(2,6-dimethoxy-4-(1,4,5-trimethyl-6-oxo-1,6-dihydropyridin-3-yl)benzyl)piperazin-1-yl)methyl)-1-methyl-1,2,3,4-tetrahydroisoquinoline-2-carbonyl)-3-(4-methylpyridin-2-yl)acrylonitrile]
